Results on four molecules are retold here after patent publication US9849134B2, “Method of improving cognition and social behavior in humans having deficits therein due to neurodegenerative disorders and compounds and compositions therefor” (The Board of Trustees of the Leland Stanford Junior …, priority 2014, dated 2017).

“Also recorded” adds a separate entry of the source. Structures can show the parent of a compound that is named as a salt. Where two headings read alike, the source gives them in different places. * marks the point of attachment. Myristoyl = CCCCCCCCCCCCCC(=O)*

Data set [1] is described as follows: Xamoterol concentration in plasma and brain after s.c. injection. The class given is in vivo. Particulars: mice; for concentration at 30 min / concentration at 1 h / concentration at 2 h: C57Bl/6, mouse, sc, 3 mg/kg s.c. The method, then:
Mice are euthanized at 3, 15, 30, 60, 120, 240 and 360 minutes after drug administration. Blood is drawn by cardiac puncture and collected in heparinized tubes. Plasma is immediately separated by centrifugation and stored at −80° C. until assay. For tissue distribution studies, tissue samples from the brain, heart, kidney, liver and spleen are collected 60 and 120 minutes after drug administration. The tissue samples are homogenized using 0.9% saline at a ratio of 1:2. The homogenates are stored at −80° C. until analysis. […] 2(2): p.

A further data set relates to β-arrestin pathway. The experiment in a line: β-arrestin pathway activation. The class given is cell-based.
Data set [2] deals with Thy1-hAPP^Lond/Swe+ mice (APP). Kind of data set: Social recognition test in APP mouse model of AD. The class given is in vivo. The method, then: (§1) Behavioral testing. […] Drug treatment. […] Betaxolol was injected sub-cutaneously (1 mg/kg) or in the MeA (30 nmole/side). PKI 14-22 amide was dissolved in 30% acetonitrile and injected in the MeA (2.75 nmole/side).
The test system of data set [3] is pCREB. Kind of data set: Western blot of pCREB in C57B1/6 mice. The class given is in vivo. The protocol: (§2) Molecular analyses. Immunohistochemistry was used to assess c-Fos, tyrosine hydroxylase (TH) and β1-ADR. The quantitative analysis of stained cells was done in different brain regions according to the Mouse Brain Atlas. Cell counting was achieved using the unbiased-stereologic method. The total number of positive cells was quantified with the optical fractionator method using the StereoInvestigator software (MBF Bioscience, Williston, Vt., USA). The counting criteria were determined so as to obtain a mean coefficient of error ≦0.10. Analysis of pCREB was performed by western blot.
We then tested whether pharmacological modulation of β1-ADR affects CREB phosphorylation in the MeA in the context of social learning.

The test system of data set [4] is pCREB. The experiment in a line: Western blot of pCREB in medial amygdala of APP mice and WT controls. The class given is in vivo. The method, then:
as §2, with “Immunohistochemistry was used to assess c-Fos, tyrosine hydroxylase (TH) and β1-ADR.” left out, “blot. […] It was reported that in Alzheimer's disease several phosphorylated proteins and transcription factors are preferentially located in the cytoplasm (vs. the nucleus) and are thus inefficient in inducing expression of genes important for learning and memory.” for “blot.”

The test system of a further data set is Thy1-APP^Lond/Swe+ mice. The experiment in a line: Working memory in Thy1-APP^Lond/Swe+ mice. The class given is in vivo. The following applies: acute s.c. 3 mg/kg.
In another data set the test system is 5xFAD mice. Kind of data set: Chronic dosing in 5xFAD mouse model of AD (memory, Morris-Water Maze, microglia, plaques). The class given is in vivo.
A further data set has as its system wild type mice. Kind of data set: Cardiac safety after chronic treatment in wild type mice. The class given is in vivo. The following applies: 3 months.
Data set [5] concerns Thy1-hAPP^Lond/Swe+ line transgenic mice. Kind of data set: Activity chamber test (locomotor activity) in Thy1-hAPP^Lond/Swe+ mice. The class given is in vivo. Particulars: 0.3 and 1 mg/kg s.c., chronic, after 1 month.
Data set [6] shares this test system. The experiment in a line: Fear conditioning test in Thy1-hAPP^Lond/Swe+ mice. The class given is in vivo. The following applies: 0.3 and 1 mg/kg s.c., chronic, after 2.5 months.
Data set [7] has as its system humans with heart failure. Particulars: 200 mg twice daily for 2-12 months; cited from earlier work.
The subject of the next data set is mice and rats. Particulars: cited from earlier work.
Data set [8] deals with C57B1/6 mice. The experiment in a line: Social recognition tests (in-home cage social discrimination, 3-chamber) in C57B1/6 mice. The class given is in vivo. The protocol:
as §1

Another data set deals with β2-ADR KO mice. Particulars: 3 mg/kg. The method, then:
(§3) Behavioral testing. Social recognition was tested in two different tests: the 3-chamber social test developed by Nadler et al and the in-home cage social discrimination task developed by Macbeth et al. To differentiate between social recognition and recognition of non-social odors/objects non-social odor discrimination tests (olfactory habituation/dishabituation and olfactory recognition test) and an object recognition test were used.

The subject of data set [9] is C57B1/6 mice. The method, then: as §3
We assessed the ability of C57B1/6 mice to recognize a previously-met conspecific after an acute subcutaneous injection of various doses of a selective β1-ADR antagonist, betaxolol (0.01, 0.1 and 1 mg/kg).

The next data set has as its system c-Fos. The protocol:
as §2
Brain regions involved in social recognition have already been defined. Among them are the lateral septum, prefrontal cortex and MeA. […] We used c-Fos as a marker of neuronal activity and compared its expression in a group of C57B1/6 mice after social learning with a group of mice after both social learning and social recognition.

The next data set relates to C57BI/6 mice. Particulars: single dose 1 mg/kg.
[10] abbreviates: 1 mg/kg, 20 minutes prior to learning phase.

Turning to `O=C(NCCNCC(O)COc1ccc(O)cc1)N1CCOCC1` (racemic) [xamoterol, 1-p-Hydroxyphenoxy-3-beta-(morpholinocarbonamido)ethyl-amino-2-propanol hydrogen fumarate], in data set [1] (brain, read-out: Brain), the concentration at 30 min came to 168 ± 6.4 ng/mL, the concentration at 1 h is 116 ± 9.1 ng/mL and the concentration at 2 h was found to be 125 ± 7.4 ng/mL. For the same molecule, in [1] (plasma, read-out: Plasma), the concentration at 30 min was found to be 274 ± 75.9 ng/mL, the concentration at 1 h was 45.1 ± 6.1 ng/mL and the concentration at 2 h amounted to 4.7 ± 0.7 ng/mL. Further, the “Passage of the BBB” value in data set [1] is “passes the BBB and reach the central nervous system”. Further, in the data set on β-arrestin pathway, the “Effect on β-arrestin pathway” value was “no effect on the β-arrestin pathway”. In addition, in [2] (3 mg/kg systemic (s.c.), acute, prior to testing), the “Social recognition deficit of APP mice” value was “rescued the social recognition deficit”. Further, the “Preference for unfamiliar intruder over empty cup” value in data set [2] (3 mg/kg, WT and APP mice) is on record as “did not affect the preference”. In addition, the “pCREB expression in mice brain” value in the data set with pCREB [3] (3 mg/kg s.c., after 15 minutes) is “significant increase of pCREB”. Besides, the “pCREB expression in MeA vs baseline” value with pCREB [3] (3 mg/kg, 5 min after injection) is recorded as “increased”. Besides, the “Total pCREB in MeA of APP mice after social learning” value in the data set on pCREB [4] (APP mice) is on record as “no significant increase”. In addition, the “pCREB in MeA of WT littermates after social learning” value in the data set with pCREB [4] (WT animals) was “induced an increase in pCREB”. For the same molecule, the “Nuclear pCREB level in medial amygdala of APP mice” value with pCREB [4] (injection prior to social learning, nuclear fraction) is recorded as “significantly higher”. Besides, the Working memory deficit entry in the data set on Thy1-APP^Lond/Swe+ mice is “rescued; also recorded: rescues working memory and social recognition deficits”. In the data set with 5xFAD mice, the “Activated microglia and Aβ plaque clearance” value is “increased activated microglia and Aβ plaque clearance”; the “Performance in the Morris-Water Maze (escape latency, time in thigmotaxis)” value was “improved”. In the data set with 5xFAD mice (daily oral 6 mg/kg over 3 months, 6 mg/kg), the Declarative memory deficit result was “rescued; also recorded: rescues the declarative and spatial memory deficits”. Moreover, in the data set with wild type mice (3 mg/kg s.c., vs vehicle), the “Cardiovascular functions (BP, heart rate, EF, FS, HW/BW)” value was “did not develop pathological changes in cardiac functions; also recorded: did not show significant difference in cardiovascular functions” and the Myocardial fibrosis entry was “did not induce cardiac fibrosis; also recorded: did not show significant difference”. Besides, the “Myocardial structure (Masson's trichrome staining)” value in the data set on wild type mice (3 mg/kg, s.c.) is “did not produce changes in myocardial structure”. Moreover, the “Hyperactivity phenotype (locomotor activity)” value in [5] is reported as “dose-dependent reversal of hyperactivity phenotype”. For the same molecule, in data set [6], the “Cognitive functioning (fear conditioning test)” value is “dose-dependent improvement in cognitive functioning”. The “Side effects of chronic treatment in humans” value in data set [7] is reported as “without any significant side effects”. The “Retrieval deficit in mice with NA deficiency” value in the data set on mice and rats (mice with NA deficiency) was “can be rescued”.

For the molecule `CC(C)NCC(O)COc1ccc(CCOCC2CC2)cc1` (stereo not drawn) [betaxolol], in the data set on C57B1/6 mice [8] (30 nmole in the MeA), the “Social recognition after injection in the MeA” value was “impairs social recognition”. In addition, the “Social recognition: preference for novel intruder over familiar one” value (“Social recognition … over familiar one” for short) with C57B1/6 mice [8] (0.01 mg/kg s.c.) is listed as “showed this preference”. Also, the “Social recognition … over familiar one” value in the data set with C57B1/6 mice [8] (0.1 mg/kg s.c.) is given as “did not show a preference”. The “Social recognition … over familiar one” value in the data set on C57B1/6 mice [8] (1 mg/kg s.c.) was “did not show a preference”. In the data set with C57B1/6 mice [8] (setting [10]), the “Long-term social memory, 24 hours after learning phase” value is on record as “impaired long-term social memory” and the “Short term social recognition, dosing before learning phase” value is “impaired short term social recognition”. The “Social recognition, dosing before retrieval phase” value in the data set on C57B1/6 mice [8] (1 mg/kg, 30 minutes prior to retrieval phase) is recorded as “did not impair social recognition”. In addition, the “Social recognition in 3-chamber test” value with C57B1/6 mice [8] (1 mg/kg, systemic injection prior to learning phase) is reported as “impairs social recognition”. Further, in the data set with C57B1/6 mice [8] (0.01 to 1 mg/kg), the “Social learning: preference for unfamiliar mouse over empty cup” value is on record as “did not affect social learning”. In the data set with β2-ADR KO mice, the “Social recognition in β2-ADR KO mice” value was “effectively impaired social recognition abilities”. For the same molecule, in the data set on C57B1/6 mice [9] (1 mg/kg), the “Ability to recognize a familiar odor or object over a new one” value was “not affected”; the “Non-social odor habituation, dishabituation and recognition” value is listed as “did not impair non-social odor recognition”. In addition, in the data set on C57B1/6 mice [9] (betaxolol vs vehicle), the “Non-social odor recognition (heptanol / heptanol:octanol)” value is listed as “did not impair non-social order recognition”. In addition, the “Number of c-Fos positive cells in the MeA” value in the data set on c-Fos (1 mg/kg prior to social recognition task) was “decreased the number of c-Fos positive cells in the MeA”. The “Number of c-Fos positive cells in the thalamus (PV)” value in the data set with c-Fos (injection prior to social recognition task) is “did not affect the number of c-Fos positive cells in the thalamus”. In addition, in the data set with c-Fos (vs vehicle-injected mice), the “Percent of β1-ADR cells expressing c-Fos in MeA” value is “significantly reduced”. The “pCREB expression in MeA after 5 minutes of social interaction” value with pCREB [3] (1 mg/kg, 60 minutes before social learning) is recorded as “significantly decreased”. Besides, the Contextual memory entry with C57BI/6 mice was “impairment of contextual memory”. For the same molecule, the Spatial navigation retrieval entry in the data set on mice and rats (wild-type mice and rats) is given as “produces spatial navigation retrieval deficit”.

As to `CC(C)NCC(O)c1ccc(O)c(O)c1` (stereo not drawn) [isoprenaline], the “Effect on β-arrestin pathway” value in the data set on β-arrestin pathway was “activates both cAMP and β-arrestin pathways”.

For the molecule “PKI 14-22 amide myristoylated (Myristoyl-SGRTGRRNA-NH2; SMILES CCCCCCCCCCCCCC(=O)N[C@@H](CO)C(=O)NCC(=O)N[C@@H](CCCNC(=N)N)C(=O)N[C@H](C(=O)NCC(=O)N[C@@H](CCCNC(=N)N)C(=O)N[C@@H](CCCNC(=N)N)C(=O)N[C@@H](CC(N)=O)C(=O)N[C@@H](C)C(N)=O)[C@@H](C)O; UniProt P61925 14-22, looked up, fragment) [PKA inhibitor]”, in the data set on C57B1/6 mice [8] (2.75 nmole in the MeA), the “Preference for unfamiliar conspecific over empty cup after injection in the MeA” value was “did not affect”; the “Social recognition after injection in the MeA” value is “impaired the ability of mice to recognize between a new and familiar conspecific”.
